Measurements from the supplement of paper PMC10307832.

Key:
Assay in all cases: relative viability (nuclei count vs DMSO), 5 days (fraction); higher = more cells survive
Motesanib + OSI-027 = compound: CC1(C)CNc2cc(NC(=O)c3cccnc3NCc3ccncc3)ccc21 [Motesanib] + COc1cccc2cc(-c3nc([C@H]4CC[C@H](C(=O)O)CC4)n4ncnc(N)c34)[nH]c12 [OSI-027] (partner 0.5 µM)
How it was run: (§1)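 Cells from lung cancer lines were seeded into 1536-well plates and, one day later, dosed by pin tool. Treatments were either a single drug or a fixed dose of an anchor drug with five library-drug doses (not always all listed) in √10 steps. After 5 days, nuclei were stained in a one-step fixation (final 0.05% Triton X-100, 1% formaldehyde, 1 ug/ml Hoechst) and counted on 4× images, and relative viability is the treated-to-vehicle nuclei ratio, as the median of duplicate plates.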

[1] = compound: C[C@@]1(C(=O)Nc2ccc(F)nc2)CCCN1c1nc(Nc2cc(C3CC3)n[nH]2)c2cccn2n1 + C[C@]1(O)C[C@@H](c2nc(-c3ccc4ccc(-c5ccccc5)nc4c3)c3c(N)nccn32)C1 [Linsitinib] (partner 1 µM)
How it was run: as §1

Motesanib + Vorinostat = compound: CC1(C)CNc2cc(NC(=O)c3cccnc3NCc3ccncc3)ccc21 [Motesanib] + O=C(CCCCCCC(=O)Nc1ccccc1)NO [Vorinostat] (partner 1 µM)
How it was run: as §1

[2] = compound: C[C@@]1(C(=O)Nc2ccc(F)nc2)CCCN1c1nc(Nc2cc(C3CC3)n[nH]2)c2cccn2n1 + CC1(C)CCC(c2ccc(Cl)cc2)=C(CN2CCN(c3ccc(C(=O)NS(=O)(=O)c4ccc(N[C@H](CCN5CCOCC5)CSc5ccccc5)c(S(=O)(=O)C(F)(F)F)c4)cc3)CC2)C1 [Navitoclax] (partner 0.5 µM)
How it was run: as §1

## SK-MES-1
Motesanib + OSI-027; first compound 0.01 µM
  relative viability: 0.611
Motesanib + OSI-027; first compound 0.03162 µM
  relative viability: 0.59
Motesanib + OSI-027; first compound 0.1 µM
  relative viability: 0.661
Motesanib + OSI-027; first compound 0.3162 µM
  relative viability: 0.648
Motesanib + OSI-027; first compound 1 µM
  relative viability: 0.564
[1]; first compound 0.04 µM
  relative viability: 1.03
[1]; first compound 0.1265 µM
  relative viability: 0.95
[1]; first compound 0.4 µM
  relative viability: 0.957
[1]; first compound 1.265 µM
  relative viability: 1.05
Motesanib + Vorinostat; first compound 0.01 µM
  relative viability: 1.13
Motesanib + Vorinostat; first compound 0.03162 µM
  relative viability: 1.12
Motesanib + Vorinostat; first compound 0.1 µM
  relative viability: 1.25
Motesanib + Vorinostat; first compound 0.3162 µM
  relative viability: 1.16
Motesanib + Vorinostat; first compound 1 µM
  relative viability: 1.16
[2]; first compound 0.04 µM
  relative viability: 1.3
[2]; first compound 0.1265 µM
  relative viability: 0.995
[2]; first compound 1.265 µM
  relative viability: 1.1

## SW 1573
Motesanib + OSI-027; first compound 0.01 µM
  relative viability: 0.561
Motesanib + OSI-027; first compound 0.03162 µM
  relative viability: 0.583
Motesanib + OSI-027; first compound 0.1 µM
  relative viability: 0.549
Motesanib + OSI-027; first compound 0.3162 µM
  relative viability: 0.736
Motesanib + OSI-027; first compound 1 µM
  relative viability: 0.709
[1]; first compound 0.04 µM
  relative viability: 0.914
[1]; first compound 0.1265 µM
  relative viability: 0.665
[1]; first compound 0.4 µM
  relative viability: 0.656
[1]; first compound 1.265 µM
  relative viability: 0.806
Motesanib + Vorinostat; first compound 0.01 µM
  relative viability: 0.77
Motesanib + Vorinostat; first compound 0.03162 µM
  relative viability: 0.799
Motesanib + Vorinostat; first compound 0.1 µM
  relative viability: 0.738
Motesanib + Vorinostat; first compound 0.3162 µM
  relative viability: 0.834
Motesanib + Vorinostat; first compound 1 µM
  relative viability: 1.04
[2]; first compound 0.04 µM
  relative viability: 0.875
[2]; first compound 0.1265 µM
  relative viability: 0.471
[2]; first compound 0.4 µM
  relative viability: 0.655
[2]; first compound 1.265 µM
  relative viability: 0.8
